Measured values from publication PMC3277886, “High-affinity fluorescent ligands for the 5-HT3 receptor” (Bioorganic & Medicinal Chemistry Letters, 2012).
Where two headings read alike, the source gives them in different places.

What was measured:
[1] = target: T1, human 5-HT3AR (Homo sapiens, UniProt P46098); conditions: read-out: Ki (nM) mean ± SEM; cited from earlier work
T1 construct: expressed in transfected cells
T1 sequence (P46098 24-478): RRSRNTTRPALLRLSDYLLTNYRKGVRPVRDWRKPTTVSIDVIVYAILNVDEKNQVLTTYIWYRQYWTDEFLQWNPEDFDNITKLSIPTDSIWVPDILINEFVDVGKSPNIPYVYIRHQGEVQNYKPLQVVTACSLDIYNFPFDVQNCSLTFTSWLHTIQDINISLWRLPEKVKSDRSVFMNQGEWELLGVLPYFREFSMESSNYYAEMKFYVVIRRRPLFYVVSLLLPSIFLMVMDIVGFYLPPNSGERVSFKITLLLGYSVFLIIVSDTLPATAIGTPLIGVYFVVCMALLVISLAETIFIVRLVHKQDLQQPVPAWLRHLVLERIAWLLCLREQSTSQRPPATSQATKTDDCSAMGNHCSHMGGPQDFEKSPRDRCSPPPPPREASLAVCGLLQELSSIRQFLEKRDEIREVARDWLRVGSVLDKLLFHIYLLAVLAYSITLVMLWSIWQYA

[2] = target: T1, human 5-HT3AR; assay: competition binding studies with [3H]granisetron
Description: The photophysical properties of fluorescent granisetron derivatives were measured in MeOH and/or phosphate buffer at pH 7 (Table 1). […]. […] The binding affinities of the fluorescent granisetron probes for the human 5-HT3AR were determined by competition binding studies with [^3H]granisetron. […]. In terms of probe design it appears that optimal binding is obtained if the fluorophore is conjugated to N1 of granisetron via a short (butyl) aliphatic spacer. […]
(5) Radioligand binding and fluorescence microscopy
Materials, cell culture maintenance, receptor expression and radioligand binding for […]

[3] = target: T2, human 5-HT3A receptors (Homo sapiens, UniProt P46098); assay: live cell imaging (fluorescence microscopy) of COS-7 cells transiently transfected with human 5-HT3A receptors; assay type: cell-based; conditions: 100 nM probe; for selectivity of staining: 5-HT3A-transfected versus mock transfected cells / detectable staining of cells: 1 h; for selectivity of staining: 5-HT3A-transfected versus mock transfected cells / inhibition of staining by co-incubation with ondansetron: live COS-7 cells; for selectivity of staining: 5-HT3A-transfected versus mock transfected cells: transfected vs mock transfected; for detectable staining of cells: HBS buffer, room temperature, live COS-7 cells transfected with human 5-HT3A; for inhibition of staining by co-incubation with ondansetron: co-incubation with ondansetron (OND) 10 μM
T2 construct: myc; expressed in transfected cells; host or cells: COS-7
T2 sequence (P46098 24-478): T1 sequence (P46098 24-478)
Description: The utility of granisetron probes 16–18, 26–28 and 36 to fluorescently label the receptor was studied using live cell imaging of COS-7 cells transiently transfected with human 5-HT3A receptors.
Figure 2 Fluorescent labeling of human 5-HT3AR in live COS-7 cells. Cells were either transfected with human 5HT3A cDNA (left and middle panels), or mock transfected (right panels). 24 h later they were incubated with 100 nM of probes 16, 18 or 28 in HBS buffer for 1 h at room temperature in the dark. The cells were imaged using a fluorescence microscope set to the appropriate absorption/emission wavelengths (Table 1). Some cells were also co-incubated with 10 μM ondansetron (OND, middle panels) to block 5-HT3 receptors. Scale bar represents 50 μm. […]
(5) Radioligand binding and fluorescence microscopy […]
For the fluorescence microscopy experiments COS-7 cells were transiently transfected with human 5-HT3A-myc cDNA (10 µg per transfection of […]) by electroporation (400 V, ∞ Ω, 125 µF), and grown on coverslips for 24 hours. Cells were washed with HBS then incubated with 100 nM of each probe (diluted in HBS) for 1 hour at room temperature in the dark. In some experiments 10 µM unlabelled ondansetron (OND) was co-incubated with the probes. Excess probe was removed by washing four times in HBS, and coverslips were placed in an imaging chamber with 1 ml HBS. Cells were then imaged using a fluorescence microscope set to the appropriate emission/excitation wavelengths. […]

[4] = human 5-HT3AR, competition with [3H]granisetron, read-out: Ki (nM) mean ± SEM

Row | Compound | Ki [2] | Ki [2, 4] | also measured
1 | COc1cccc2c1c(C(=O)NC1CC3CCCC(C1)N3C)nn2C (stereo not drawn) [Probe 2] | – | – | Ki [1]: 26 ± 7 nM
2 | COc1cccc2c(C(=O)NC3CC4CCCC(C3)N4C)nn(C)c12 (stereo not drawn) [Probe 5] | – | – | Ki [1]: 71 ± 8 nM
3 | Cc1cc(C)n2c1C=C1C=CC(CCC(=O)NCCCn3nc(C(=O)NC4CC5CCCC(C4)N5C)c4ccccc43)=[N+]1[B-]2(F)F (stereo not drawn) [Probe 6] | – | – | Ki [1]: 2.8 ± 0.7 nM
4 | COc1ccc(C2=[N+]3C(=Cc4c(C)c(CCC(=O)NCCCCCC(=O)NCCCn5nc(C(=O)NC6CC7CCCC(C6)N7C)c6ccccc65)c(C)n4[B-]3(F)F)C=C2)cc1 (stereo not drawn) [Probe 14] | 0.9 ± 0.3 nM | – | –
5 | CCN(CC)c1ccc2cc(C(=O)NCCCn3nc(C(=O)NC4CC5CCCC(C4)N5C)c4ccccc43)c(=O)oc2c1 (stereo not drawn) [Probe 15] | 199 ± 39 nM | – | –
6 | CN1C2CCCC1CC(NC(=O)c1nn(CCCNC(=S)Nc3ccc(-c4c5ccc(=O)cc-5oc5cc(O)ccc45)c(C(=O)O)c3)c3ccccc13)C2 (stereo not drawn) [Probe 16] | – | 1.6 ± 0.3 nM | selectivity of staining: 5-HT3A-transfected versus mock transfected cells [3]: selective staining for 5-HT3R; detectable staining of cells [3]: detectable staining; inhibition of staining by co-incubation with ondansetron [3]: inhibited by co-incubation with the 5-HT3R antagonist ondansetron
7 | CCN(CC)c1ccc2cc(C(=O)NCCCCn3nc(C(=O)NC4CC5CCCC(C4)N5C)c4ccccc43)c(=O)oc2c1 (stereo not drawn) [Probe 17] | – | 7.3 ± 2.5 nM | –
8 | CN1C2CCCC1CC(NC(=O)c1nn(CCCCNC(=S)Nc3ccc(-c4c5ccc(=O)cc-5oc5cc(O)ccc45)c(C(=O)O)c3)c3ccccc13)C2 (stereo not drawn) [Probe 18] | 1.1 ± 0.2 nM | – | selectivity of staining: 5-HT3A-transfected versus mock transfected cells [3]: selective staining for 5-HT3R; detectable staining of cells [3]: detectable staining; inhibition of staining by co-incubation with ondansetron [3]: inhibited by co-incubation with the 5-HT3R antagonist ondansetron
9 | CCN(CC)c1ccc2cc(C(=O)NCCOCCOCCn3nc(C(=O)NC4CC5CCCC(C4)N5C)c4ccccc43)c(=O)oc2c1 (stereo not drawn) [Probe 20] | – | 142 ± 5 nM | –
10 | CN1C2CCCC1CC(NC(=O)c1nn(CCOCCOCCNC(=S)Nc3ccc(-c4c5ccc(=O)cc-5oc5cc(O)ccc45)c(C(=O)O)c3)c3ccccc13)C2 (stereo not drawn) [Probe 21] | – | 6300 nM | –
11 | CCN(CC)c1ccc2c(-c3ccc(NC(=S)NCCOCCOCCn4nc(C(=O)NC5CC6CCCC(C5)N6C)c5ccccc54)cc3C(=O)[O-])c3ccc(=[N+](CC)CC)cc-3oc2c1 (stereo not drawn) [Probe 22] | – | 384 ± 68 nM | –
12 | CN1C2CCCC1CC(NC(=O)c1nn(CCCNc3ccc([N+](=O)[O-])c4nonc34)c3ccccc13)C2 (stereo not drawn) [Probe 26] | – | 8.7 ± 5.8 nM | –
13 | CN(C)c1cccc2c(S(=O)(=O)NCCCn3nc(C(=O)N[C@H]4C[C@H]5CCC[C@@H](C4)N5C)c4ccccc43)cccc12 [Probe 27] | – | 1.2 ± 0.6 nM | –
14 | CC1=CC(C)=[N+]2C1=C(CCCOC(=O)CCCn1nc(C(=O)NC3CC4CCCC(C3)N4C)c3ccccc31)c1c(C)cc(C)n1[B-]2(F)F (stereo not drawn) [Probe 28] | – | 1.6 ± 0.8 nM | selectivity of staining: 5-HT3A-transfected versus mock transfected cells [3]: intense fluorescence in both 5-HT3A- and mock-transfected cells; detectable staining of cells [3]: detectable staining; inhibition of staining by co-incubation with ondansetron [3]: not blocked by ondansetron
15 | CCN(CC)c1ccc2cc(C(=O)NCCOc3cccc4c(C(=O)NC5CC6CCCC(C5)N6C)nn(C)c34)c(=O)oc2c1 (stereo not drawn) [Probe 36] | 1.9 ± 0.9 nM | – | –
16 | CCN(CC)c1ccc2cc(C(=O)NCCCOc3cccc4c(C(=O)N[C@H]5C[C@H]6CCC[C@@H](C5)N6C)nn(C)c34)c(=O)oc2c1 [Probe 37] | 157 ± 9 nM | – | –
17 | CCN(CC)c1ccc2cc(C(=O)NCCOCCOCCOc3cccc4c(C(=O)N[C@@H]5C[C@H]6CCC[C@@H](C5)N6C)nn(C)c34)c(=O)oc2c1 [Probe 38] | – | 1300 nM | –
18 | CN1[C@@H]2CCC[C@H]1C[C@@H](NC(=O)c1nn(C)c3c(OCCOCCOCCNC(=S)Nc4ccc(-c5c6ccc(=O)cc-6oc6cc(O)ccc56)c(C(=O)O)c4)cccc13)C2 [Probe 39] | 208 ± 55 nM | – | –
